For 30 compounds, IC50 results are on record in patent publication US8404673B2, “Carbocyclic GlyT1 receptor antagonists” (Hoffmann-La Roche Inc., priority 2009, dated 2013).

One experiment has as its target T1, mGlyT-1b (Mus musculus, UniProt P28571).
T1 construct: host or cells: Flp-in-CHO
T1 sequence (P28571 1-651 isoform P28571-2): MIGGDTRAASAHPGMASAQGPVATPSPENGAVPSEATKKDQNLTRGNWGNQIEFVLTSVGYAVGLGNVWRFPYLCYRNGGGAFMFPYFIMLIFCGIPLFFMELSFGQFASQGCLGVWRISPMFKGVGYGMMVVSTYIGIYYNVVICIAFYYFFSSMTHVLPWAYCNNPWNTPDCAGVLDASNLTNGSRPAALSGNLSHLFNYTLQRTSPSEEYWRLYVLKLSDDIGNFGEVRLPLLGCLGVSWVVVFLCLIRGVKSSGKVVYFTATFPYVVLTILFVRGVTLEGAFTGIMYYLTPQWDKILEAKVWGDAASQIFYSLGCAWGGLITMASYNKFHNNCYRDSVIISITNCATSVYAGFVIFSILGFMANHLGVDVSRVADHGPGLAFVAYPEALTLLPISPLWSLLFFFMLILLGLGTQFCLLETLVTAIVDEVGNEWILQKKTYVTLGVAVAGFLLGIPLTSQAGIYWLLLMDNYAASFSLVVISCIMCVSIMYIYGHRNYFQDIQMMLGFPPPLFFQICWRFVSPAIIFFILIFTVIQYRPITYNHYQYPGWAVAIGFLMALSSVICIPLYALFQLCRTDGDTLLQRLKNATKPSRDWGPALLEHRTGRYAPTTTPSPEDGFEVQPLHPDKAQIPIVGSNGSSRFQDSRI
The experiment can be described thus: Glycine Uptake Inhibition Assay (mGlyT-1b). Particulars: IC50 data. It is filed as cell-based.
The term IC50 denotes the concentration that gives 50% inhibition. The compound `COc1cc(C(F)(F)F)cc(Br)c1C(=O)NC1CCCC1N1CCCC1` (single isomer, unassigned; (-)) [Example 114, (−)-2-Bromo-6-methoxy-N-cis-(2-pyrrolidin-1-yl-cyclopentyl)-4-trifluoromethyl-benzamide] showed an IC50 of 66.8 nM. The compound `CCc1cccc(C2CC2)c1C(=O)N[C@@H]1CCC[C@@H]1N1CCCC1` (single isomer, unassigned) [Example 120, (−)-cis-2-Cyclopropyl-6-ethyl-N-(2-pyrrolidin-1-yl-cyclopentyl)-benzamide] registered a half-inhibitory concentration (IC50) of 55.2 nM. Same read-out and setting: for `CCc1cc(C(F)(F)F)cc(C(F)(F)F)c1C(=O)N[C@H]1CCC[C@H]1N1CCCC1` (single isomer, unassigned) [Example 141, (+)-2-Ethyl-N-(2-pyrrolidin-1-yl-cyclopentyl)-4,6-bis-trifluoromethyl-benzamide] the value was 43.5 nM; for `Cc1cc(C(F)(F)F)cc(C)c1C(=O)N[C@H]1CCC[C@H]1N1CCCC1` (relative stereo) [Example 132, 2,6-Dimethyl-N-((cis)-2-pyrrolidin-1-yl-cyclopentyl)-4-trifluoromethyl-benzamide], 36.5 nM. `O=C(NC1CCCC1N1CCCC1)c1c(C2CC2)cc(C(F)(F)F)cc1C(F)(F)F` (single isomer, unassigned; (+)) [Example 139, (+)-2-Cyclopropyl-N-((1R,2S or 1S,2R)-2-pyrrolidin-1-yl-cyclopentyl)-4,6-bis-trifluoromethyl-benzamide] had an IC50 of 32.5 nM. Compound `O=C(NC1CCCC1N1CCCC1)c1ccc(C(F)(F)F)cc1C1CC1` (single isomer, unassigned; (+)) [Example 97, (+)-2-Cyclopropyl-N-cis-(-2-pyrrolidin-1-yl-cyclopentyl)-4-trifluoromethyl-benzamide] gave a concentration for half-maximal inhibition (IC50) of 82.4 nM. Same read-out and setting: next, `COc1cc(C(F)(F)F)cc(OC(F)F)c1C(=O)N[C@H]1CCC[C@H]1N1CCCC1` (relative stereo) [Example 133, 2-Difluoromethoxy-6-methoxy-N-((cis)-2-pyrrolidin-1-yl-cyclopentyl)-4-trifluoromethyl-benzamide]: 90.8 nM; `CSc1cc(C(F)(F)F)ccc1C(=O)N[C@@H]1CCC[C@@H]1N1CCCC1` (single isomer, unassigned) [Example 84, (+)-2-Methylsulfanyl-N-(2-pyrrolidin-1-yl-cyclopentyl)-4-trifluoromethyl-benzamide]: 89 nM. For `O=C(N[C@H]1CCC[C@H]1N1CCCC1)c1c(F)cc(C(F)(F)F)cc1C(F)(F)F` (relative stereo) [Example 105, cis-2-Fluoro-N-(2-pyrrolidin-1-yl-cyclopentyl)-4,6-bis-trifluoromethyl-benzamide], the IC50 is 75.1 nM. For the compound `COc1cc(C(F)(F)F)cc(SC)c1C(=O)N[C@@H]1CCC[C@@H]1N1CCCC1` (single isomer, unassigned) [Example 59, (+)-2-Methoxy-6-methylsulfanyl-N-(2-pyrrolidin-1-yl-cyclopentyl)-4-trifluoromethyl-benzamide], the IC50 is 61.1 nM. Consider `CSc1cc(C(F)(F)F)cc(C(F)(F)F)c1C(=O)N[C@@H]1CCC[C@@H]1N1CCCC1` (single isomer, unassigned) [Example 118, (+)-cis-2-Methylsulfanyl-N-(2-pyrrolidin-1-yl-cyclopentyl)-4,6-bis-trifluoromethyl-benzamide], for which half-maximal inhibition (IC50) was put at 60 nM. `CSc1cc(C(F)(F)F)ccc1C(=O)N[C@@H]1CCC[C@@H]1N1CCCC1` (single isomer, unassigned) [Example 85, (−)-2-Methylsulfanyl-N-(2-pyrrolidin-1-yl-cyclopentyl)-4-trifluoromethyl-benzamide]: the concentration for half-maximal inhibition (IC50) was 60.4 nM. On the same count and under the same terms, next, `CCc1cc(C(F)(F)F)ccc1C(=O)N[C@H]1CCC[C@H]1N1CCCC1` (relative stereo) [Example 80, cis-2-Ethyl-N-(2-pyrrolidin-1-yl-cyclopentyl)-4-trifluoromethyl-benzamide]: 89.6 nM; `O=C(N[C@H]1CCC[C@H]1N1CCCC1)c1c(Cl)cc(C(F)(F)F)cc1Cl` (relative stereo) [Example 108, cis-2,6-Dichloro-N-(2-pyrrolidin-1-yl-cyclopentyl)-4-trifluoromethyl-benzamide]: 88.2 nM; `CCc1cccc(C2CC2)c1C(=O)N[C@@H]1CCC[C@@H]1N1CCCC1` (single isomer, unassigned) [Example 121, (+)-cis-2-Cyclopropyl-6-ethyl-N-(2-pyrrolidin-1-yl-cyclopentyl)-benzamide]: 36.1 nM. On the same count and under the same terms, for `COc1cc(C(F)(F)F)cc(SC)c1C(=O)N[C@@H]1CCC[C@@H]1N1CCCC1` (racemic) [Example 55, 2-Methoxy-6-methylsulfanyl-N-((1RS,2SR)-2-pyrrolidin-1-yl-cyclopentyl)-4-trifluoromethyl-benzamide] the value was 84.6 nM; for `O=C(N[C@H]1CCC[C@H]1N1CCCC1)c1ccc(C(F)(F)F)cc1C1CC1` (racemic) [Example 91, 2-Cyclopropyl-cis-N-(2-pyrrolidin-1-yl-cyclopentyl)-4-trifluoromethyl-benzamide], 45.3 nM. In turn, `O=C(NC1CCCC1N1CCCC1)c1c(Cl)cc(C(F)(F)F)cc1Cl` (single isomer, unassigned; (+)) [Example 128, (+)-2,6-Dichloro-N-cis-(2-pyrrolidin-1-yl-cyclopentyl)-4-trifluoromethyl-benzamide] registered a half-inhibitory concentration (IC50) of 69.1 nM. The same measure, in the same setting: for `COc1cc(C(F)(F)F)cc(C2CC2)c1C(=O)N[C@H]1CCC[C@H]1N1CCCC1` (relative stereo) [Example 131, 2-Cyclopropyl-6-methoxy-N-((cis)-2-pyrrolidin-1-yl-cyclopentyl)-4 trifluoromethyl-benzamide] the value was 19.9 nM; for `CCc1cc(C(F)(F)F)cc(OC)c1C(=O)N[C@H]1CCC[C@H]1N1CCCC1` (relative stereo) [Example 140, 2-Ethyl-6-methoxy-N-((cis)-2-pyrrolidin-1-yl-cyclopentyl)-4-trifluoromethyl-benzamide], 55.4 nM; for `CSc1cc(C(F)(F)F)cc(C(F)(F)F)c1C(=O)N[C@H]1CCC[C@H]1N1CCCC1` (racemic) [Example 104, cis-2-Methylsulfanyl-N-(2-pyrrolidin-1-yl-cyclopentyl)-4,6-bis-trifluoromethyl-benzamide], 18.9 nM. `CCc1cccc(C)c1C(=O)N[C@H]1CCC[C@H]1N1CCCC1` (relative stereo) [Example 94, cis-2-Ethyl-6-methyl-N-(2-pyrrolidin-1-yl-cyclopentyl)-benzamide] came in with an IC50 of 98.4 nM. The same measure, in the same setting: for `O=C(N[C@H]1CCC[C@H]1N1CCCC1)c1c(C2CC2)cc(C(F)(F)F)cc1C(F)(F)F` (relative stereo) [Example 130, 2-Cyclopropyl-N-((cis)-2-pyrrolidin-1-yl-cyclopentyl)-4,6-bis-trifluoromethyl-benzamide] the value was 35.4 nM.

The same experiment, now with this note: [3H]-glycine uptake, Flp-in-CHO cells transfected with mGlyT-1b cDNA, 20 min preincubation at 22° C.; read-out: IC50 data.
As to `CSc1cc(C(F)(F)F)cc(C(F)(F)F)c1C(=O)N[C@H]1CCC[C@H]1NC1CCCC1` (racemic) [Example 134, N-((cis)-2-Cyclopentylamino-cyclopentyl)-2-methylsulfanyl-4,6-bis-trifluoromethyl-benzamide], the IC50 was found to be 95.7 nM.

Still in this experiment, the particulars now being: read-out: IC50 data.
For the compound `O=C(NC1CCCC1NC1CCCC1)c1ccc(C(F)(F)F)cc1C1CC1` (single isomer, unassigned; (+)) [Example 109, (+)-cis-N-2-Cyclopentylamino-cyclopentyl)-2-cyclopropyl-4-trifluoromethyl-benzamide], the concentration for half-maximal inhibition (IC50) came to 25.3 nM. For `CCc1cc(C(F)(F)F)ccc1C(=O)N[C@H]1CCC[C@H]1NC1CCCC1` (racemic) [Example 89, cis-N-(2-Cyclopentylamino-cyclopentyl)-2-ethyl-4-trifluoromethyl-benzamide], the half-maximal inhibitory concentration (IC50) is 79.4 nM. As to `COc1cc(C(F)(F)F)cc(SC)c1C(=O)N[C@@H]1CCC[C@@H]1NC1CCC1` (racemic) [Example 61, N-((1RS,2SR)-2-Cyclobutylamino-cyclopentyl)-2-methoxy-6-methylsulfanyl-4-trifluoromethyl-benzamide], the IC50 is 65.9 nM.

As for `COc1cc(C(F)(F)F)cc(SC)c1C(=O)N[C@H]1CCC[C@H]1NC1CCCC1` (single isomer, unassigned) [Example 68, (−)-N-(2-Cyclopentylamino-cyclopentyl)-2-methoxy-6-methylsulfanyl-4-trifluoromethyl-benzamide], the IC50 stood at 19.4 nM.

Turning to `COc1cc(C(F)(F)F)cc(SC)c1C(=O)N[C@@H]1CCC[C@@H]1NC1CCCC1` (racemic) [Example 65, N-((1RS,2SR)-2-Cyclopentylamino-cyclopentyl)-2-methoxy-6-methylsulfanyl-4-trifluoromethyl-benzamide], the IC50 was determined as 56.4 nM. Consider `O=C(NC1CCCC1NC1CCCC1)c1ccc(C(F)(F)F)cc1C1CC1` (single isomer, unassigned; (-)) [Example 110, (−)-cis-N-2-Cyclopentylamino-cyclopentyl)-2-cyclopropyl-4-trifluoromethyl-benzamide], for which the IC50 was 54.3 nM.
